Measured values as given in publication PMC12856317, “A reversible feedback mechanism regulating mitochondrial heme synthesis” (The Journal of Biological Chemistry, 2025).

What was measured:
[1] = target: T1, holoALAS2 ΔC (residues 54–547) (Homo sapiens, UniProt P22557); experiment: Colorimetric ALA release activity assay, hemin inhibition of holoenzyme; assay type: biochemical
T1 construct: a truncation without the C-terminal CXXC motif (ΔC, residues 54–547); His6-SUMO (N, cleaved yes); made in house; host or cells: Escherichia coli BL21-Codon Plus (DE3)-RIL
T1 sequence (P22557 54-547): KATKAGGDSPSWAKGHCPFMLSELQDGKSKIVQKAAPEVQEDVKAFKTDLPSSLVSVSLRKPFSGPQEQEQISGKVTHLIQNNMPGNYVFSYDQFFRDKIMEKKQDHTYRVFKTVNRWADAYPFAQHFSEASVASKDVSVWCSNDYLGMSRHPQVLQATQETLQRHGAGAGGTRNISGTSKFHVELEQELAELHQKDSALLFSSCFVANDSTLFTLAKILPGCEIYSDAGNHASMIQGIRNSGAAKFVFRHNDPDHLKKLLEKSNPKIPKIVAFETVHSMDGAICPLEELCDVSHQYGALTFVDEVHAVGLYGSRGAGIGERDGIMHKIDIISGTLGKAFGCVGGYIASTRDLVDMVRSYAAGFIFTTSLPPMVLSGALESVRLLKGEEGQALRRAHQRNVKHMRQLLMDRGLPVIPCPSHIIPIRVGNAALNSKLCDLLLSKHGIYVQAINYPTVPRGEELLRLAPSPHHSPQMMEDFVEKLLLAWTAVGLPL
Description: (§1) A discontinuous colorimetric activity assay adapted from Shoolingin-Jordan et al. and Bailey et al. was used to measure the enzyme activity ([48], [74]). The reaction was initiated by adding 100 nM purified enzyme to 50 mM potassium phosphate, pH 7.0, 10 mM MgCl2, 1 mM DTT, 100 mM glycine, and 300 μM succinyl-CoA (175 μl total). The reaction was incubated at 37 °C for 15 min and terminated with 100 μl of cold 10% trichloroacetic acid. The precipitated protein was removed by centrifugation for 5 min at 13,000g, and 240 μl of the supernatant was mixed with 240 μl of 1 M sodium acetate, pH 4.6. To derivatize ALA, 20 μl of acetylacetone was added to the mixture and boiled at 100 °C for 10 min. After the sample was cooled for 20 min, 100 μl aliquots were transferred into a clear 96-well plate in triplicate. An equal volume of Ehrlich’s reagent (p-Dimethylaminobenzaldehyde, DMAB) was added to each well, and the absorbance was monitored at 553 nm using a microplate reader (Thermo Fisher Scientific). The peak absorbance value was converted to molar ALA concentration using ε553 = 60,400 M^−1 cm^−1.
(§2) Inhibition of enzyme activity was determined by titrating hemin (0.1 μM–60 μM) into the substrate mixture before initiating the reaction upon enzyme addition. Hemin was dissolved in 100% dimethyl sulfoxide (DMSO) (ε403 nm = 170,000 M^−1 cm^−1) and serially diluted in 100% DMSO to prepare stock solutions for each concentration. The final DMSO concentration in the reaction mixture was 2%. All experiments were performed with a minimum of three biological replicates, each with three technical replicates. Data were fitted using nonlinear regression to generate an inhibitor dose-response curve (IC50) or an agonist dose-response curve (EC50), and statistical significance was determined using a one-way ANOVA with GraphPad Prism 10.

[2] = target: T2, holoALAS2 ΔN (residues 75–587) (Homo sapiens, UniProt P22557); experiment: as above; assay type: biochemical
T2 construct: a truncation without HRM3 (ΔN, residues 75–587); His6-SUMO (N, cleaved yes); made in house; host or cells: Escherichia coli BL21-Codon Plus (DE3)-RIL
T2 sequence (P22557 75-587): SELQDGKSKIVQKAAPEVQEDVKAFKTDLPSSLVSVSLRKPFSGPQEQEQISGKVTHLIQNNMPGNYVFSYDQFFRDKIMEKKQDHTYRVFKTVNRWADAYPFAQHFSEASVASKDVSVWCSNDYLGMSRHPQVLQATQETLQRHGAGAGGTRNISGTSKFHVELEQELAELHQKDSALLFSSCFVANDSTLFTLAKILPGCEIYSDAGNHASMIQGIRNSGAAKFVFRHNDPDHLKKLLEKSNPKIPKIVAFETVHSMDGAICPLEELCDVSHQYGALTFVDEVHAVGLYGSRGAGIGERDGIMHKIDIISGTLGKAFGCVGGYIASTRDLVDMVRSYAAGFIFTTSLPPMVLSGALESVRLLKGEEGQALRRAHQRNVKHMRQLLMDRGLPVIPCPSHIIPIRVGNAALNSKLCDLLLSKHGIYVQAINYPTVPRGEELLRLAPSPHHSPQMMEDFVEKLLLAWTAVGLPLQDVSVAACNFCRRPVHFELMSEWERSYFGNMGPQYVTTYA
Description: as §1, §2

- IC50 ([1]; 0.1 μM–60 μM hemin titrated into holoenzyme): 31.3 ± 0.8 µM
- residual enzyme activity, of basal activity ([1]; 100-fold excess heme): ~25%
- IC50 fold higher than WT ([2]; ΔN versus WT): ~2 fold
- IC50 ([2]; ΔN, 0.1 μM–60 μM hemin titrated into holoenzyme): 35.8 ± 0.4 µM
Substance: ferric chloride heme [hemin]
